Measurements: patent US20160355483A1, “COMPOUND BINDING TO PPARG BUT NOT ACTING AS PROMOTER AND PHARMACEUTICAL COMPOSITION FOR TREATING PPARG-RELATED DISEASES CONTAINING SAME AS ACTIVE INGREDIENT” (Hyundai Pharm Co., Ltd., priority 2014, published 2016)

Target: T1, PPARG (peroxisome proliferator activated receptor-gamma), GST-PPARG-LBD (Homo sapiens, UniProt P37231)
T1 construct: 15 μL of 5 nM GST-PPARG-LBD and 5 nM Tb-GST-antibody were added; purchased Invitrogen PV4894
T1 sequence (P37231 238-503 limits assumed): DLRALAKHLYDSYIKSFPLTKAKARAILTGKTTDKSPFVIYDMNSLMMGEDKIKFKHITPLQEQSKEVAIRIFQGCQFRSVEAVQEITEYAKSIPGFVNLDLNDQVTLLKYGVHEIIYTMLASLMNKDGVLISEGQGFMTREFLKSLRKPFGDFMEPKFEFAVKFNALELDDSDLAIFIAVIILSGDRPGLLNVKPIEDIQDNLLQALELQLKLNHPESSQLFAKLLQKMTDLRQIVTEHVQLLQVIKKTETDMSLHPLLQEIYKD
Assay: LanthaScreen TR-FRET PPARG Competitive Binding Assay
Design: key: “+” indicates the degree of the binding activity, and as the number of “+” increases, the binding activity is stronger; ++: “+” indicates the degree of the binding activity, and as the number of “+” increases, the binding activity is stronger; +++: “+” indicates the degree of the binding activity, and as the number of “+” increases, the binding activity is stronger; ++++: “+” indicates the degree of the binding activity, and as the number of “+” increases, the binding activity is stronger
Details: degree of binding activity
Outline: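 GST-tagged human PPARG LBD in a TR-FRET competitive binding kit, 1 h at room temperature. Read-out is the 518/488 nm emission ratio (340 nm excitation); activity = 100% − compound ratio/vehicle ratio, compared with rosiglitazone.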

## Cc1ccc([C@H](C)NC(=O)c2ccc3c(c2)CCCN3Cc2ccc(-c3ccccc3C(=O)O)cc2F)cc1F [Example 111, (S)-3′-fluoro-4′-((6-((1-(3-fluoro-4-methylphenyl)ethyl)carbamoyl)-3,4-dihydroquinoline-1(2H)-yl)methyl)-[1,1′-biphenyl]-2-caboxylic acid]
  Binding assay (1 μLM): ++++

## C[C@H](NC(=O)c1ccc2c(c1)CCCN2Cc1cccc(-c2ccccc2C(=O)O)c1)c1ccc2ccccc2c1 [Example 120, (S)-3′-((6-((1-(naphthalene-2-yl)ethyl)carbamoyl)-3,4-dihydroquinoline-1(2H)-yl)methyl)-[1,1′-biphenyl]-2-carboxylic acid]
  Binding assay (1 μLM): ++++

## Cc1cc(F)ccc1[C@H](C)NC(=O)c1ccc2c(c1)OCCN2Cc1ccc(-c2ccccc2C(=O)O)cc1 [Example 79, (S)-4′-((7-((1-(4-fluoro-2-methylphenyl)ethyl)carbamoyl)-2H-benzo[b][1,4]oxazine-4(3H)-yl)methyl)-[1,1′-biphenyl]-2-carboxylic acid]
  Binding assay (1 μLM): ++

## C[C@H](NC(=O)c1ccc2c(c1)CCCN2Cc1ccc(-c2ccccc2C(N)=O)cc1F)c1ccccc1 [Example 107, (S)-1-((2′-carbamoyl-3-fluoro-[1,1′-biphenyl]-4-yl)methyl)-N-(1-phenylethyl)-1,2,3,4-tetrahydroquinoline-6-carboxamide]
  Binding assay (1 μLM): +++

## C[C@H](NC(=O)c1ccc2c(c1)CCCN2Cc1ccc(-c2ccccc2C(N)=O)cc1)c1ccc(Br)cc1 [Example 37, (S)—N-(1-(4-bromophenyl)ethyl)-1-((2′-carbamoyl-[1,1′-biphenyl]-4-yl)methyl)-1,2,3,4-tetrahydroquinoline-6-carboxamide]
  Binding assay (1 μLM): +++

## C[C@H](NC(=O)c1ccc2c(c1)OCCN2Cc1ccc(-c2ccccc2C(=O)[O-])cc1)c1ccccc1.[Na+] [Example 103, sodium (S)-4′-((7-((1-phenylethyl)carbamoyl)-2H-benzo[b][1,4]oxazine-4(3H)-yl)methyl)-[1,1′-biphenyl]-2-carboxylate]
  Binding assay (1 μLM): ++

## C[C@@H](NC(=O)c1ccc2c(c1)OCCN2Cc1ccc(-c2ccccc2C(=O)O)cc1)c1ccc(C#N)cc1 [Example 81, (R)-4′-((7-((1-(4-cyanophenyl)ethyl)carbamoyl)-2H-benzo[b][1,4]oxazine-4(3H)-yl)methyl)-[1,1′-biphenyl]-2-carboxylic acid]
  Binding assay (1 μLM): +++

## COC(=O)c1ccc(CNC(=O)c2ccc3c(c2)OCCN3Cc2ccc(-c3ccccc3C(=O)O)cc2)cc1 [Example 71, 4′-((7-((4-(methoxycarbonyl)benzyl)carbamoyl)-2H-benzo[b][1,4]oxazine-4(3H)-yl)methyl)-[1,1′-biphenyl]-2-carboxylic acid]
  Binding assay (1 μLM): +

## C[C@H](NC(=O)c1ccc2c(c1)CCCN2Cc1ccccc1-c1ccc(C(N)=O)cc1)c1ccc2ccccc2c1 [Example 160, (S)-1-((4′-carbamoyl-[1,1′-biphenyl]-2-yl)methyl)-N-(1-(naphthalene-2-yl)ethyl)-1,2,3,4-tetrahydroquinoline-6-carboxamide]
  Binding assay (1 μLM): ++

## C[C@H](NC(=O)c1ccc2c(c1)CCCN2Cc1ccc(-c2ccccc2C(=O)O)cc1)c1cccc(OC(F)(F)F)c1 [Example 18, (S)-4′-((6-((1-(3-(trifluoromethoxy)phenyl)ethyl)carbamoyl)-3,4-dihydroquinoline-1(2H)-yl)methyl)-[1,1′-biphenyl]-2-carboxylic acid]
  Binding assay (1 μLM): +++

## C[C@H](NC(=O)c1ccc2c(c1)OCCN2Cc1ccc(-c2ccccc2C(=O)O)cc1)c1ccc(Br)cc1 [Example 61, (S)-4′-((7-((1-(4-bromophenyl)ethyl)carbamoyl)-2H-benzo[b][1,4]oxazine-4(3H)-yl)methyl)-[1,1′-biphenyl]-2-carboxylic acid]
  Binding assay (1 μLM): ++

## C[C@@H](NC(=O)c1ccc2c(c1)OCCN2Cc1ccc(-c2ccccc2C(N)=O)cc1)c1ccc(C#N)cc1 [Example 94, (R)-4-((2′-carbamoyl-[1,1′-biphenyl]-4-yl)methyl)-N-(1-(4-cyanophenyl)ethyl)-3,4-dihydro-2H-benzo[b][1,4]oxazine-7-carboxamide]
  Binding assay (1 μLM): ++

## O=C(NCc1ccc(Br)cc1)c1ccc2c(c1)OCCN2Cc1ccc(-c2ccccc2C(=O)O)cc1 [Example 73, 4′-((7-((4-bromobenzyl)carbamoyl)-2H-benzo[b][1,4]oxazine-4(3H)-yl)methyl)-[1,1′-biphenyl]-2-carboxylic acid]
  Binding assay (1 μLM): +

## C[C@H](NC(=O)c1ccc2c(c1)OCCN2Cc1ccc(-c2ccccc2C(=O)[O-])cc1)c1ccc([N+](=O)[O-])cc1.[Na+] [Example 105, sodium (S)-4′-((7-((1-(4-nitrophenyl)ethyl)carbamoyl)-2-benzo[b][1,4]oxazine-4(3H)-yl)methyl)-[1,1′-biphenyl]-2-carboxylate]
  Binding assay (1 μLM): +

## C[C@H](NC(=O)c1ccc2c(c1)CCCN2Cc1ccc(-c2ccccc2C(=O)O)cc1)c1cccc2ccccc12 [Example 10, (S)-4′-((6-((1-(naphthalene-1-yl)ethyl)carbamoyl)-3,4-dihydroquinoline-1(2H)-yl)methyl)-[1,1′-biphenyl]-2-carboxylic acid]
  Binding assay (1 μLM): +++

## COc1ccccc1[C@H](C)NC(=O)c1ccc2c(c1)CCCN2Cc1ccc(-c2ccccc2C(N)=O)cc1 [Example 41, (S)-1-((2′-carbamoyl-[1,1′-biphenyl]-4-yl)methyl)-N-(1-(2-methoxyphenyl)ethyl)-1,2,3,4-tetrahydroquinoline-6-carboxamide]
  Binding assay (1 μLM): +++

## O=C(NCc1ccc(Br)cc1)c1ccc2c(c1)CCCN2Cc1ccc(-c2ccccc2C(=O)O)cc1 [Example 31, 4′-((6-((4-bromobenzyl)carbamoyl)-3,4-dihydroquinoline-1 (2H)-yl)methyl)-[1,1′-biphenyl]-2-carboxylic acid]
  Binding assay (1 μLM): ++++

## NC(=O)c1ccccc1-c1ccc(CN2CCOc3cc(C(=O)NCc4ccccc4Br)ccc32)cc1 [Example 101, N-(2-bromobenzyl)-4-((2′-carbamoyl-[1,1′-biphenyl]-4-yl)methyl)-3,4-dihydro-2H-benzo[b][1,4]oxazine-7-carboxamide]
  Binding assay (1 μLM): ++

## O=C(NC1COc2ccccc2C1)c1ccc2c(c1)CCCN2Cc1ccc(-c2ccccc2C(=O)O)cc1 (centres unmarked) [Example 15, 4′-((6-(cromene-3-ylcarbamoyl)-3,4-dihydroquinoline-1(2H)-yl)methyl)-[1,1′-biphenyl]-2-carboxylic acid]
  Binding assay (1 μLM): +

## O=C(NCc1ccco1)c1ccc2c(c1)OCCN2Cc1ccc(-c2ccccc2C(=O)O)cc1 [Example 69, 4′-((7-((furan-2-ylmethyl)carbamoyl)-2H-benzo[b][1,4]oxazine-4(3H)-yl)methyl)-[1,1′-biphenyl]-2-carboxylic acid-A]
  Binding assay (1 μLM): +

## Cc1ccc([C@H](C)NC(=O)c2ccc3c(c2)OCCN3Cc2ccc(-c3ccccc3C(=O)O)cc2)cc1F [Example 80, (S)-4′-((7-((1-(3-fluoro-4-methylphenyl)ethyl)carbamoyl)-2H-benzo[b][1,4]oxazine-4(3H)-yl)methyl)-[1,1′-biphenyl]-2-carboxylic acid]
  Binding assay (1 μLM): ++

## C[C@H](NC(=O)c1ccc2c(c1)OCCN2Cc1ccccc1-c1ccc(C(=O)O)cc1)c1ccc(C#N)cc1 [Example 144, (S)-2′-((7-((1-(4-cyanophenyl)ethyl)carbamoyl)-2H-benzo[b][1,4]oxazine-4(3H)-yl)methyl)-[1,1′-biphenyl]-4-carboxylic acid]
  Binding assay (1 μLM): +

## NC(=O)c1ccccc1-c1ccc(CN2CCCc3cc(C(=O)NCc4ccc5c(c4)OCCO5)ccc32)cc1 [Example 52, 1-((2′-carbamoyl-[1,1′-biphenyl]-4-yl)methyl)-N-((2,3-dihydrobenzo[b][1,4]dioxin-6-yl)methyl)-1,2,3,4-tetrahydroquinoline-6-carboxamide]
  Binding assay (1 μLM): +++

## C[C@H](NC(=O)c1ccc2c(c1)OCCN2Cc1ccccc1-c1ccc(C(=O)O)cc1)c1ccc([N+](=O)[O-])cc1 [Example 146, (S)-2′-((7-((1-(4-nitrophenyl)ethyl)carbamoyl)-2H-benzo[b][1,4]oxazine-4 (3H)-yl)methyl)-[1,1′-biphenyl]-4-carboxylic acid]
  Binding assay (1 μLM): +

## C[C@H](NC(=O)c1ccc2c(c1)CCCN2Cc1ccccc1-c1ccc(C(N)=O)cc1)c1ccccc1 [Example 153, (S)-1-((4′-carbamoyl-[1,1′-biphenyl]-2-yl)methyl)-N-(1-phenylethyl)-1,2,3,4-tetrahydroquinolin-6-carboxamide]
  Binding assay (1 μLM): ++

## C[C@H](NC(=O)c1ccc2c(c1)CCCN2Cc1ccc(-c2ccccc2C(N)=O)cc1)c1ccc(C(F)(F)F)cc1 [Example 33, (S)-1-((2′-carbamoyl-[1,1′-biphenyl]-4-yl)methyl)-N-(1-(4-(trifluoromethyl)phenyl)ethyl)-1,2,3,4-tetrahydroquinoline-6-carboxamide]
  Binding assay (1 μLM): +++
